Measured values: the NIST ThermoML archive (doi:10.1016/j.fluid.2010.03.001)

Assay: xn = mol fraction of the nth substance listed
Settings: 101 kPa, Liquid; for viscosity: Concentric cylinders viscometry; for mass density: Vibrating tube method

C=C(C)[C@H]1CC=C(C)CC1 [(R)-1-methyl-4-(1-methylethenyl)cyclohexene] + CCCCCO
Settings	mass density [kg/m3]	viscosity [mPa·s]
293.15 K, x2 = 0	841.5	0.902
293.15 K, x2 = 0.092	839.4	0.935
293.15 K, x2 = 0.1644	837.8	0.983
293.15 K, x2 = 0.2748	835.4	1.079
293.15 K, x2 = 0.3592	833.5	1.182
293.15 K, x2 = 0.4565	831.2	1.34
293.15 K, x2 = 0.5542	828.8	1.564
293.15 K, x2 = 0.6068	827.4	1.717
293.15 K, x2 = 0.647	826.4	1.851
293.15 K, x2 = 0.7365	823.8	2.213
293.15 K, x2 = 0.8234	821.1	2.66
293.15 K, x2 = 0.9105	818.1	3.26
303.15 K, x2 = 0	833.6	0.793
303.15 K, x2 = 0.092	831.4	0.814
303.15 K, x2 = 0.1644	829.8	0.85
303.15 K, x2 = 0.2748	827.4	0.923
303.15 K, x2 = 0.3592	825.4	1
303.15 K, x2 = 0.4565	823.2	1.115
303.15 K, x2 = 0.5542	820.8	1.275
303.15 K, x2 = 0.6068	819.5	1.384
303.15 K, x2 = 0.647	818.4	1.477
303.15 K, x2 = 0.7365	816	1.73
303.15 K, x2 = 0.8234	813.4	2.055
303.15 K, x2 = 0.9105	810.5	2.473
313.15 K, x2 = 0	825.8	0.702
313.15 K, x2 = 0.092	823.4	0.716
313.15 K, x2 = 0.1644	821.8	0.743
313.15 K, x2 = 0.2748	819.4	0.799
313.15 K, x2 = 0.3592	817.4	0.854
313.15 K, x2 = 0.4565	815.2	0.942
313.15 K, x2 = 0.5542	812.9	1.057
313.15 K, x2 = 0.6068	811.6	1.137
313.15 K, x2 = 0.647	810.6	1.201
313.15 K, x2 = 0.7365	808.2	1.386
313.15 K, x2 = 0.8234	805.8	1.617
313.15 K, x2 = 0.9105	803	1.915
323.15 K, x2 = 0	817.9	0.628
323.15 K, x2 = 0.092	815.4	0.635
323.15 K, x2 = 0.1644	813.7	0.655
323.15 K, x2 = 0.2748	811.3	0.699
323.15 K, x2 = 0.3592	809.3	0.737
323.15 K, x2 = 0.4565	807.1	0.805
323.15 K, x2 = 0.5542	804.8	0.891
323.15 K, x2 = 0.6068	803.5	0.949
323.15 K, x2 = 0.647	802.5	0.995
323.15 K, x2 = 0.7365	800.2	1.129
323.15 K, x2 = 0.8234	797.9	1.298
323.15 K, x2 = 0.9105	795.3	1.51
333.15 K, x2 = 0	809.9	0.566
333.15 K, x2 = 0.092	807.3	0.568
333.15 K, x2 = 0.1644	805.5	0.582
333.15 K, x2 = 0.2748	803	0.616
333.15 K, x2 = 0.3592	801	0.644
333.15 K, x2 = 0.4565	798.8	0.696
333.15 K, x2 = 0.5542	796.5	0.761
333.15 K, x2 = 0.6068	795.2	0.803
333.15 K, x2 = 0.647	794.2	0.837
333.15 K, x2 = 0.7365	792.2	0.937
333.15 K, x2 = 0.8234	789.8	1.06
333.15 K, x2 = 0.9105	787.3	1.219
343.15 K, x2 = 0	801.9	0.5
343.15 K, x2 = 0.092	799.2	0.511
343.15 K, x2 = 0.1644	797.2	0.52
343.15 K, x2 = 0.2748	794.6	0.546
343.15 K, x2 = 0.3592	792.6	0.567
343.15 K, x2 = 0.4565	790.4	0.608
343.15 K, x2 = 0.5542	788.2	0.657
343.15 K, x2 = 0.6068	787	0.688
343.15 K, x2 = 0.647	786	0.713
343.15 K, x2 = 0.7365	783.7	0.786
343.15 K, x2 = 0.8234	781.5	0.878
343.15 K, x2 = 0.9105	779.1	0.996
353.15 K, x2 = 0	793.6	0.452
353.15 K, x2 = 0.092	790.8	0.462
353.15 K, x2 = 0.1644	788.9	0.468
353.15 K, x2 = 0.2748	786.2	0.487
353.15 K, x2 = 0.3592	784.2	0.502
353.15 K, x2 = 0.4565	781.9	0.534
353.15 K, x2 = 0.5542	779.5	0.571
353.15 K, x2 = 0.6068	778.4	0.594
353.15 K, x2 = 0.647	777.4	0.615
353.15 K, x2 = 0.7365	775.2	0.669
353.15 K, x2 = 0.8234	773.1	0.737
353.15 K, x2 = 0.9105	770.6	0.827
363.15 K, x2 = 0	785.4	0.413
363.15 K, x2 = 0.092	782.5	0.421
363.15 K, x2 = 0.1644	780.4	0.424
363.15 K, x2 = 0.2748	777.7	0.438
363.15 K, x2 = 0.3592	775.6	0.448
363.15 K, x2 = 0.4565	773.2	0.473
363.15 K, x2 = 0.5542	770.9	0.502
363.15 K, x2 = 0.6068	769.6	0.519
363.15 K, x2 = 0.647	768.6	0.535
363.15 K, x2 = 0.7365	766.5	0.576
363.15 K, x2 = 0.8234	764.4	0.627
363.15 K, x2 = 0.9105	762	0.691
373.15 K, x2 = 0	777.1	0.382
373.15 K, x2 = 0.092	774.3	0.385
373.15 K, x2 = 0.1644	771.9	0.386
373.15 K, x2 = 0.2748	769	0.395
373.15 K, x2 = 0.3592	766.9	0.402
373.15 K, x2 = 0.4565	764.4	0.421
373.15 K, x2 = 0.5542	762	0.443
373.15 K, x2 = 0.6068	760.7	0.456
373.15 K, x2 = 0.647	759.7	0.469
373.15 K, x2 = 0.7365	757.7	0.499
373.15 K, x2 = 0.8234	755.7	0.538
373.15 K, x2 = 0.9105	753.1	0.584
